# Patent publication US20090258836A1, “EFFECTIVE DELIVERY OF CROSS-SPECIES A3 ADENOSINE-RECEPTOR ANTAGONISTS TO REDUCE INTRAOCULAR PRESSURE” (The Trustees of The University of Pennsylvania, priority 2006, published 2009)
# “Also recorded” adds a separate entry of the source.
# Key:
# cultured human NPE cells = conditions: 10 μM adenosine; cited from earlier work
# [1] = test system: HCE (human ciliary epithelial) cell line, NPE cells; experiment: Cell volume in isosmotic solution (isosmotic shrinkage), Coulter Counter; format: cell-based
# Outline: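 Immortalized human NPE (HCE) cells, 8-13 days post-passage at confluence, suspended in isosmotic solution with test agents or matched vehicle. Volume measured by Coulter Counter as peak of distribution, normalized to first time point; shrinkage fit to monoexponential by nonlinear least squares for steady-state volume and time constant.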
# mouse IOP = experiment: Mouse IOP after topical application, non-invasive pneumotonometry; format: in vivo, Black Swiss mice
# Outline: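 Black Swiss outbred mice (7-9 weeks, mixed sex) under intraperitoneal ketamine plus topical proparacaine 0.5%. Drugs applied topically as […] droplets three times, containing <2% DMSO and 0.0005% benzalkonium chloride; IOP measured non-invasively by pneumotonometry at 10-min intervals from a stereotactically fixed probe position.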
compound,measurement,setting,value
"CCOC(=O)C1=C(C)NC(c2ccccc2)=C(C(=O)OCc2ccccc2)C1C#Cc1ccccc1 (racemic) [MRS-1191, 3-ethyl 5-benzyl-2-methyl-6-phenyl-4-phenylethynyl-1,4-(±)-dihydropyridine-3,5-dicarboxylate]",effect of antagonist on adenosine-treated cells,cultured human NPE cells,displayed no exponential shrinkage
same,effect of A3 antagonist on IB-MECA-triggered isosmotic shrinkage of NPE cells,"[1]; 100 nM IB-MECA, 2 min preincubation with 300 nM MRS-1097 or 100 nM MRS-1191",prevented characteristic shrinkage; also recorded: prevented the shrinkage
same,effect on cell volume in the absence of IB-MECA,[1]; 100 nM MRS-1191,did not affect cell volume
same,effect of A3 antagonist on isosmotic shrinkage triggered by CGS-21680,"[1]; 3 μM CGS-21680, preincubation with 100 nM MRS-1191",abolished this effect; also recorded: blocked; also recorded: prevented the shrinkage
same,effect of A3 antagonist on adenosine-stimulated isotonic shrinkage of NPE cells,"[1]; 10 μM adenosine, 2 min preincubation with 300 nM MRS-1097, 100 nM MRS-1191 or 100 nM MRS-1523",prevented the characteristic shrinkage; also recorded: blocked the shrinkage
same,time of maximum decrease in IOP observed pneumotonometrically,"mouse IOP; after the initial application, end of the experiments",30 min
same,"time to begin lowering mouse IOP significantly, non-invasive",mouse IOP; after topical application,30 min
